Measured values from US11649255B2, “Indazoles as hematopoietic progenitor kinase 1 (HPK1) inhibitors and methods using same” (1st Biotherapeutics, Inc., priority 2020, dated 2023).

The compounds below were run against recombinant human HPK1 (Homo sapiens (Human), UniProt Q92918) (assay: HPK1 kinase assay (ADP-Glo)). Settings: 25 μM ATP, MBP substrate.
Assay type: biochemical
How it was run: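 Activity was read as ADP formed, detected by ADP-Glo luminescence after the reaction of 5 ng recombinant human HPK1 with MBP and ATP (stocks 0.5 μg/μl and 25 μM) for 40 min at 30 °C. Buffer was Tris pH 7.5 with MgCl2, BSA and DTT, with compound in 0.5% DMSO. IC50 came from inhibition curves.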

Chain of recombinant human HPK1 (Q92918 whole entry): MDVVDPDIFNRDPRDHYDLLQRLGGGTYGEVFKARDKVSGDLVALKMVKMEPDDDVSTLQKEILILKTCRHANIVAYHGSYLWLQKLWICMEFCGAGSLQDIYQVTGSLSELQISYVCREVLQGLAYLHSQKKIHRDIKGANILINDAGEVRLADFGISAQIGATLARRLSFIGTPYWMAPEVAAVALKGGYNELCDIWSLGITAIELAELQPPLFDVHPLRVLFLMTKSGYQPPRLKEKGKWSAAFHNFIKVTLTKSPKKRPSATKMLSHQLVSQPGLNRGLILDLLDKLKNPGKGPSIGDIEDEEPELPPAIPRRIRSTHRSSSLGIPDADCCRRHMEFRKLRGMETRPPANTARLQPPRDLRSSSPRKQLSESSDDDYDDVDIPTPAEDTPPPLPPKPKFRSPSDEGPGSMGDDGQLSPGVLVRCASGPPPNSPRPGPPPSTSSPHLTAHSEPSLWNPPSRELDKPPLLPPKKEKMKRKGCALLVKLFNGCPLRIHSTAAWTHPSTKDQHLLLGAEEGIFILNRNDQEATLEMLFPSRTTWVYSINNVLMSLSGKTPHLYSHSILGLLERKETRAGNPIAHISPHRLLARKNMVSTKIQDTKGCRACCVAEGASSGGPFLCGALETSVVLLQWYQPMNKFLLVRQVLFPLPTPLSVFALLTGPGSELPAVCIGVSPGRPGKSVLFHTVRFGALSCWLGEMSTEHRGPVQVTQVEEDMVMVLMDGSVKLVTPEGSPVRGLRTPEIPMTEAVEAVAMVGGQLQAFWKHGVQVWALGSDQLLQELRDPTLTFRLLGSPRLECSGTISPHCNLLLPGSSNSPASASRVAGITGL

Row | SMILES | IC50
1 | O=C(Nc1nc2ccc(-c3c(Cl)c(F)c(NCC4CNC4)c4[nH]ncc34)cc2s1)[C@@H]1C[C@@H]1F [Example 95, (1S,2S)-N-(6-(7-((azetidin-3-ylmethyl)amino)-5-chloro-6-fluoro-1H-indazol-4-yl)benzo[d]thiazol-2-yl)-2-fluorocyclopropanecarboxamide] | < 100 nM
2 | Cc1ccc2[nH]ncc2c1-c1ccc2nc(NC(=O)[C@@H]3C[C@@H]3F)sc2n1 [Example 146, (1S,2S)-2-fluoro-N-(5-(5-methyl-1H-indazol-4-yl)thiazolo[5,4-b]pyridin-2-yl)cyclopropane-1-carboxamide] | 101 to 500 nM
3 | CC(=O)Nc1c(F)c(C)c(-c2ccc3nc(NC(=O)[C@@H]4C[C@@H]4F)sc3n2)c2cn[nH]c12 [Example 181, (1S,2S)-N-(5-(7-acetamido-6-fluoro-5-methyl-1H-indazol-4-yl)thiazolo[5,4-b]pyridin-2-yl)-2-fluorocyclopropane-1-carboxamide] | 101 to 500 nM
4 | O=C(Nc1cn2cc(-c3c(Cl)c(F)cc4[nH]ncc34)ccc2n1)C1CC1 [Example 242, N-(6-(5-chloro-6-fluoro-1H-indazol-4-yl)imidazo[1,2-a]pyridin-2-yl)cyclopropanecarboxamide] | 101 to 500 nM
5 | O=C(Nc1nc2ccc(-c3ccc(Cl)c4[nH]ncc34)cc2s1)C1CC1 [Example 19, N-(6-(7-chloro-1H-indazol-4-yl)benzo[d]thiazol-2-yl)cyclopropanecarboxamide] | > 1000 nM
6 | CCc1c(F)c(N(C)C)c2[nH]ncc2c1-c1ccc2nc(NC(=O)[C@@H]3C[C@@H]3F)sc2c1 [Example 102, (1S,2S)-N-(6-(7-(dimethylamino)-5-ethyl-6-fluoro-1H-indazol-4-yl)benzo[d]thiazol-2-yl)-2-fluorocyclopropane-1-carboxamide] | < 100 nM

The next lines start with the values.

Row | IC50 | SMILES
7 | < 100 nM | CCNc1c(F)c(Cl)c(-c2ccn3nc(NC(=O)[C@@H]4C[C@@H]4F)cc3c2)c2cn[nH]c12 [Example 496, (1S,2S)-N-(5-(5-chloro-7-(ethylamino)-6-fluoro-1H-indazol-4-yl)pyrazolo[1,5-a]pyridin-2-yl)-2-fluorocyclopropane-1-carboxamide]
8 | < 100 nM | C[C@H](c1c(F)c(Cl)c(-c2ccc3nc(NC(=O)[C@@H]4C[C@@H]4F)cn3c2)c2cn[nH]c12)n1ncnn1 [Example 407, (1S,2S)-N-(6-(7-((R)-1-(2H-tetrazol-2-yl)ethyl)-5-chloro-6-fluoro-1H-indazol-4-yl)imidazo[1,2-a]pyridin-2-yl)-2-fluorocyclopropane-1-carboxamide]
9 | < 100 nM | CC(=S)Nc1c(F)c(Cl)c(-c2ccc3nc(NC(=O)[C@@H]4C[C@@H]4F)cn3c2)c2cn[nH]c12 [Example 411, (1S,2S)-N-(6-(5-chloro-7-ethanethioamido-6-fluoro-1H-indazol-4-yl)imidazo[1,2-a]pyridin-2-yl)-2-fluorocyclopropane-1-carboxamide]
10 | < 100 nM | O=C(Nc1cc2cc(-c3c(C(F)(F)F)ccc4[nH]ncc34)ccn2n1)[C@@H]1C[C@@H]1F [Example 451, (1S,2S)-2-fluoro-N-(5-(5-(trifluoromethyl)-1H-indazol-4-yl)pyrazolo[1,5-a]pyridin-2-yl)cyclopropane-1-carboxamide]
11 | > 1000 nM | C=CC(=O)Nc1cc2[nH]ncc2c(-c2ccc3nc(NC(=O)[C@@H]4C[C@@H]4F)cn3c2)c1Cl [Example 286, (1S,2S)-N-(6-(6-acrylamido-5-chloro-1H-indazol-4-yl)imidazo[1,2-a]pyridin-2-yl)-2-fluorocyclopropane-1-carboxamide]
12 | < 100 nM | CN(C)c1c(F)cc(-c2ccc3nc(NC(=O)[C@@H]4C[C@@H]4F)cn3c2)c2cn[nH]c12 [Example 335, (1S,2S)-N-(6-(7-(dimethylamino)-6-fluoro-1H-indazol-4-yl)imidazo[1,2-a]pyridin-2-yl)-2-fluorocyclopropane-1-carboxamide]
